# Laboratory results reported in US9375434B2, “Antitumor effect potentiator composed of imidazooxazine compound” (Taiho Pharmaceutical Co., Ltd., priority 2012, dated 2016).
# Assays:
# [1] = tested on: Human ovarian cancer cell line (A2780); experiment: Potentiation of antitumor effect of carboplatin, A2780 subcutaneous implant (Test Example 3); format: in vivo, nude rats; conditions: compound-I 16 mg/kg/day p.o. day 1-14
# Method: In the figure, the asterisk represents a result having a statistically significant difference compared with the single-drug administration group. FIG. 1 and Table 10 show the results. […] Carboplatin was prepared by diluting a […] injection (Bristol-Myers Squibb, 50 mg/5 mL) two-fold with physiological saline to enable administration at a carboplatin dose of 50 mg/kg/day. Further, the test liquid of Compound-I was prepared by adjusting its dose to 16 mg/kg/day. […] The single-drug administration group was administered 0.5% HPMC or a physiological saline as a vehicle instead of Compound-I or carboplatin. […] FIG. 5 and Table 12 show the results. […] The effect of the combined administration was also statistically determined in the same manner as in Test Example 1. In the figure and the table, the asterisk represents a result having a statistically significant difference compared with the single-drug administration group.
# [2] = tested on: Human ovarian cancer cell line (A2780); experiment: Potentiation of antitumor effect of doxorubicin, A2780 subcutaneous implant in nude mice (Test Example 6); format: in vivo, BALB/cA Jcl-nu/nu mice
# Method: In the groups receiving only Compound-I, the test liquid was prepared by diluting Compound-I with 0.5% HPMC to enable administration at a Compound-I dose of 16 mg/kg/day. […] The effect of the combined administration was also statistically determined in the same manner as in Test Example 1.
# [3] = tested on: Human stomach cancer cell line (NCI-N87); experiment: Potentiation of antitumor effect of paclitaxel, NCI-N87 subcutaneous implant in nude mice (Test Example 2); format: in vivo, BALB/cA Jcl-nu/nu mice
# Method: In the figure, the asterisk represents a result having a statistically significant difference compared with the single-drug administration group. FIG. 1 and Table 10 show the results. […] Ltd.) was prepared to enable administration at a paclitaxel dose of 60 mg/kg/day. Further, test liquids for the groups receiving only Compound-I were prepared to enable administration at Compound-I doses of 8 mg/kg/day, 16 mg/kg/day, and 24 mg/kg/day. […] In the groups receiving the two drugs, Compound-I was administered at doses of 8 mg/kg/day, 16 mg/kg/day, and 24 mg/kg/day, and paclitaxel was administered at a dose of 60 mg/kg/day. The evaluation was performed in the same manner as in Test Example 1. The effect of the combined administration was also statistically determined in the same manner as in Test Example 1. In the figure and the table, the asterisk represents a result having a statistically significant difference compared with the single-drug administration group. FIG. 3 and Table 11 show the results.
# [4] = tested on: Human ovarian cancer cell line (A2780); experiment: Potentiation of antitumor effect of irinotecan, A2780 subcutaneous implant in nude mice (Test Example 5); format: in vivo, BALB/cA Jcl-nu/nu mice; conditions: compound-I 16 mg/kg/day p.o. day 1-14
# Method: (§1) As an index of antitumor effect, the TV at Day 15 was measured for each of the drug administration groups, and the relative tumor volume (RTV) relative to Day 1 and T/C (%) were calculated by the following formulas to evaluate the antitumor effect.
# (§2) TV (mm^3)=(length×width^2)/2 RTV=(TV at Day 15)/(TV at Day 1) T/C(%)=(average RTV value of the test liquid administration group)/(average RTV value of the control group)×100
# Human ovarian cancer cell line (A2780) was subcutaneously implanted into the right flank of 7-week-old male BALB/cA Jcl-nu/nu mice, and was used in the same manner as in Test Example 1. […] Further, the test liquid of Compound-I was prepared by adjusting its dose to 16 mg/kg/day.
# The effect of the combined administration was also statistically determined in the same manner as in Test Example 1. […] FIG. 9 and Table 14 show the results. Further, the change in the body weight over time was evaluated as an index of toxicity in the same manner as in Test Example 1.
# [5] = tested on: Human stomach cancer cell line (NCI-N87); experiment: Potentiation of antitumor effect of lapatinib, NCI-N87 subcutaneous implant in nude mice (Test Example 4); format: in vivo, BALB/cA Jcl-nu/nu mice; conditions: compound-I 16 mg/kg/day p.o. day 1-14 (q.d.)
# Method: In the figure, the asterisk represents a result having a statistically significant difference compared with the single-drug administration group. FIG. 1 and Table 10 show the results. […] Lapatinib was prepared by adjusting its dose to 100 mg/kg/day. Further, the test liquid of Compound-I was prepared by adjusting its dose to 16 mg/kg/day. […] The effect of the combined administration was also statistically determined in the same manner as in Test Example 1. In the figure and the table, the asterisk represents a result having a statistically significant difference compared with the single-drug administration group. FIG. 7 and Table 13 show the results.
# [6] = tested on: Human stomach cancer cell line (4-1ST); experiment: Potentiation of effect of trastuzumab (Herceptin), 4-1ST subcutaneous implant in nude mice (Test Example 11); format: in vivo, BALB/cA Jcl-nu/nu mice; conditions: Day 1~14, p.o.
# Method: as §1, §2
# Human stomach cancer cell line (4-1ST) was subcutaneously implanted into the right flank of 6-week-old male BALB/cA Jcl-nu/nu mice, and was used in the same manner as in Test Example 1.
# According to the package insert, 7.2 mL of water for injection was added to a vial containing 150 mg of trastuzumab (Roche Pharma) using a sterilized injection syringe. The resulting 21 mg/mL solution was kept in a freezer. At the time of use, the frozen solution was diluted 10.5-fold with 4.75 mL of physiological saline at a trastuzumab concentration of 2.0 mg/mL, to yield a liquid for administration at a trastuzumab dose of 20 mg/kg/day. The test liquids of Compound-I were prepared to enable administration at doses of 16 and 24 mg/kg/day.
# Compound-I and trastuzumab were administered once a day from Day 1 to 14. In the combined administration groups, Compound-I was administrated at a dose of 16 and 24 mg/kg/day, trastuzumab was administrated at a dose of 20 mg/kg/day, and the evaluation was performed in the same manner as in Test Example 1. FIGS. 17A and 17B and Table 20 show the results. In the medium/Compound I administration group, the test liquid was orally administered once a day for consecutive days. In the trastuzumab administration group, the test liquid was intraperitoneally administered once a day for consecutive days.
# The effect of the combined administration was statistically determined in the same manner as in Test Example 7.
# [7] = compound-I 16 mg/kg/day p.o. day 1-14
# [8] = compound-I 8 mg/kg/day p.o. day 1-14
# [9] = compound-I 24 mg/kg/day p.o. day 1-14
smiles,measurement,setting,value
"CC1(O)CC(N)(c2ccc(-c3nc4n(c3-c3ccccc3)COc3ccncc3-4)cc2)C1 (stereo not drawn) [compound-I, trans-3-amino-1-methyl-3-(4-(3-phenyl-5H-imidazo[1,2-c]pyrido[3,4-e][1,3]oxazin-2-yl)phenyl)cyclobutanol]",RTV day 15 Mean ± SD,[1],20.86 ± 4.84
same,T/C (%),[1],81%
same,T/C (%),[2]; compound-I 16 mg/kg/day day 1-14,80%
same,RTV day 15 Mean ± SD,[2]; [7],22.17 ± 7.20
same,RTV day 15 Mean ± SD,[3]; [8],2.02 ± 0.41
same,T/C (%),[3]; [8],59%
same,RTV day 15 Mean ± SD,[3]; [7],1.32 ± 0.38
same,T/C (%),[3]; [7],39%
same,RTV day 15 Mean ± SD,[3]; [9],0.98 ± 0.28
same,T/C (%),[3]; [9],29%
same,RTV day 15 Mean ± SD,[4],19.16 ± 2.60
same,T/C (%),[4],63%
same,RTV day 15 Mean ± SD,[5],1.14 ± 0.11
same,T/C (%),[5],42%
same,RTV^b) (mean ± SD),[6]; compound-I 16 mg/kg/day,3.01 ± 0.51
same,TGI^c) (%),[6]; compound-I 16 mg/kg/day,57.5%
same,RTV^b) (mean ± SD),[6]; compound-I 24 mg/kg/day,2.74 ± 0.29
same,TGI^c) (%),[6]; compound-I 24 mg/kg/day,61.4%
